Measurements reported in US20060013880A1, “Formulation stabilizer for proton pump inhibitors” (priority 2004, published 2006).

Experimental: This standardized stress study simulates degradation during long-term storage under high, but naturally occurring humidity levels. • 1) Dry binary mixture was prepared by accurately weighing 30 mg of lansoprazole ( Lot # A10344, purchased from ITF Chemical, LTDA, of Polo Petrochimico, Brazil) into a 20 ml head space-gas chromatography vial. A stabilizer was also weighed and added into the vial. The stabilizer tested in the experiments included the polymeric bases: cholestyramine chloride ( Lot# 038167, Dow Chemical), cholestyramine resin in hydroxide form (prepared from cholestyramine chloride as described in Example 1), Eudragit E-PO powder (lot# G030131033, Rohm Gmbh, Germany), and chitosan powder (Mutchler inc., Harrington, N.J.). […] The lansoprazole and stabilizer were mixed by vortexing for 30 seconds. • 2) A second set of dry binary mixtures were prepared in a head space-gas chromatography vial with a glass insert. […] Ten microliters of the diluted samples were analyzed by HPLC to quantitate the remaining lansoprazole using freshly prepared external lansoprazole standard solution. […]

Stabilization effect for lansoprazole (in words): significant stabilization effect
Substance: cholestyramine hydroxide
